For data set [1], the target named is recombinant three-repeat microtubule-binding domain (3R-MBD) of tau protein (Homo sapiens, UniProt P10636). Description: Determination of tau aggregation inhibitory activity (heparin-induced, thioflavin T fluorescence; electron microscope). In kind it is biochemical. Particulars: for IC50: 3R-MBD tau 10 μM, heparin 10 μM, 37° C. for 16 hours, thioflavin T, read-out: IC50 (μM) Test example 1 (tau aggregation inhibitory activity). Here is the method:
Pharmacological Test Example 1: Determination of Tau Aggregation Inhibitory Activity
A recombinant three-repeat microtubule-binding domain (3R-MBD) of tau protein was expressed in E. coli and was purified and used for the experiment. The purified tau solution was diluted with a 50 mM Tris-HCl buffer (pH 7.6) to a final concentration of 10 μM. The test compounds were prepared using dimethylsulfoxide (DMSO) at 20-fold of their final concentrations and added to the plate so that the DMSO concentration would be 5%. Heparin was added to the plate so that the final concentration would be 10 μM and the plate was left to stand at 37° C. for 16 hours. Thioflavin T was added to the plate so that the concentration would be 10 μM and the fluorescence intensity was measured with a fluorescence plate reader (PerkinElmer, Inc.) (excitation wavelength: 440 nm; emission wavelength: 480 nm).
(§1) The final concentration of each compound at the time of measurement was set at 0.1, 0.3, 1, 3, and 10 μM. The sample to which only DMSO was added was used as a negative control and its fluorescence intensity was taken as 0% inhibitory activity.
The samples were placed on a grid and washed with distilled water. A 1 mM phosphotungstic acid aqueous solution was added to the samples. The samples were washed, dried overnight, and observed.

A further data set deals with T1, Aβ 1-42 (Homo sapiens, UniProt P05067).
T1 construct: Aβ 1-42 (Peptide Institute, Inc.) was dissolved in 0.3% ammonia water; purchased Peptide Institute, Inc
Briefly: Determination of Aβ aggregation inhibitory activity (thioflavin T fluorescence). It counts as biochemical. Particulars: Aβ 1-42, 37° C. for 24 hours, thioflavin T; read-out: IC50 (μM) Test example 3 (Aβ aggregation inhibitory activity). The method, then:
Pharmacological test example 3: Determination of Aβ aggregation inhibitory activity
Aβ 1-42 (Peptide Institute, Inc.) was dissolved in 0.3% ammonia water so that the concentration would be 0.5 mM and then diluted with PBS to 20 μM. The test compounds were prepared using DMSO at 100-fold of their final concentrations and adjusted so that the DMSO concentration would be 2%. The Aβ solution and each of the test compound solutions were mixed at an equivalent ratio and the mixtures were incubated at 37° C. for 24 hours. To each of the mixtures, an equal volume of a thioflavin T solution adjusted with a 100 mM Tris-glycine buffer (pH 8.5) to 6 μM was added. The fluorescence intensity was measured with a fluorescence plate reader (excitation wavelength: 440 nm; emission wavelength: 480 nm).
as §1

In data set [2] the target is T2, recombinant human β-secretase (Homo sapiens, UniProt P56817).
T2 construct: purchased Invitrogen
Description: Determination of β-secretase inhibitory activity (BACE-1 FRET assay Kit). To be noted: for IC50: recombinant human β-secretase, fluorescent substrate peptide, 1 hour, read-out: IC50 (μM) Test example 2 (β-secretase inhibitory activity). It counts as biochemical. Here is the method: Pharmacological Test Example 2: Determination of β-Secretase Inhibitory Activity
The β-secretase inhibitory activity was measured with BACE-1 FRET assay Kit (Invitrogen). The test compounds were prepared using DMSO at 30-fold of their final concentrations and dissolved so that the DMSO concentration would be 10%. To each of the solutions, an equal volume of a recombinant human β-secretase (1 U/mL) dissolved in the assay buffer and an equal volume of fluorescent substrate peptide (2.5 nM) were added and the solutions were left to stand for 1 hour. The fluorescence intensity was measured with a fluorescence plate reader (excitation wavelength: 545 nm; emission wavelength: 590 nm).
The final concentration of each compound at the time of measurement was set at 0.1, 0.3, 1, 3, and 10 μM, at 0.3, 1, 3, 10, and 30 μM, or at 1, 3, 10, 30, and 100 μM.

Some results are limits rather than exact numbers.

19 compounds from patent publication US9399635B2, “Pyrazole derivative” (GREEN TECH CO., LTD., priority 2011, dated 2016) can be followed below.

The melting point is the temperature, or range, at which the solid turns liquid. A word on the IC50: it is the concentration that gives 50% inhibition. What is called inhibition is the drop in the measured response relative to a control, in per cent.

T2 sequence (P56817 46-501): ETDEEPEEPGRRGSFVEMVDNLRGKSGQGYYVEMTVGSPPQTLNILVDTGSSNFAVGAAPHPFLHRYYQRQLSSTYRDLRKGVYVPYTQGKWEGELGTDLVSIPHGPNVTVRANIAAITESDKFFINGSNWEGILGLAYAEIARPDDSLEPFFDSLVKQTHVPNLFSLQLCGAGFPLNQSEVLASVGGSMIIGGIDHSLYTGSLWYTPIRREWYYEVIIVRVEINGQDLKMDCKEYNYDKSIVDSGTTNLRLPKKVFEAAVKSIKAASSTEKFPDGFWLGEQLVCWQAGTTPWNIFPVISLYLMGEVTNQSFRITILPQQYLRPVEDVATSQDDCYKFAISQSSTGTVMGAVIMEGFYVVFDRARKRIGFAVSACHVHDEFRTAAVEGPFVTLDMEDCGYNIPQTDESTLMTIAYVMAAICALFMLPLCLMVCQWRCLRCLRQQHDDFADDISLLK
T1 sequence (P05067 672-713): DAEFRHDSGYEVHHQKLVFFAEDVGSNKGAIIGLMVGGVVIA
Chain of recombinant three-repeat microtubule-binding domain (3R-MBD) of tau protein (P10636 186-279 isoform P10636-2 limits assumed): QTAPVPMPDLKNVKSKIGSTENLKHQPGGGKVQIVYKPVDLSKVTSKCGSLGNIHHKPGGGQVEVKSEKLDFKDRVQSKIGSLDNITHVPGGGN

On to `COc1cc(OCC2CCCO2)ccc1/C=C/c1cc(/C=C/c2ccc3cc[nH]c3c2)[nH]n1` (centres unmarked) [Example 1, 3-[(1E)-2-(1H-indol-6-yl)ethenyl]-5-[(1E)-2-[2-methoxy-4-(2-tetrahydrofuranylmethoxy)phenyl]ethenyl]-1H-pyrazole], for which the melting point fell in the range of 218 to 220 °C. The IC50 in data set [1] was 1.49 µM. For the same compound, on Aβ 1-42, the IC50 came out at 3 µM. The IC50 in data set [2] came to 2.85 µM.

In the case of `Oc1cc(OCc2ccccn2)ccc1/C=C/c1cc(/C=C/c2ccc3cc[nH]c3c2)[nH]n1` [Example 3, 3-[(1E)-2-(1H-indol-6-yl)ethenyl]-5-[(1E)-2-[2-hydroxy-4-(2-pyridylmethoxy)phenyl]ethenyl]-1H-pyrazole], the melting point is 202.5 to 203.5 °C. For the same compound, the half-inhibitory concentration (IC50) on Aβ 1-42 is 1.6 µM. Also, in data set [2], the IC50 is 2.9 µM.

As for `COc1cc(OCCN2CCOCC2)ccc1/C=C/c1cc(/C=C/c2ccc3cc[nH]c3c2)[nH]n1` [Example 27, 3-[(1E)-2-(1H-indol-6-yl)ethenyl]-5-[(1E)-2-[2-methoxy-4-(2-morpholinoethoxy)phenyl]ethenyl]-1H-pyrazole], the melting point lay within 113 to 122 °C. In data set [1], the IC50 amounted to 1.28 µM. At Aβ 1-42, the concentration for half-maximal inhibition (IC50) came out at 7.53 µM. In addition, the 50% inhibitory concentration (IC50) in data set [2] turned out to be 1.04 µM.

`COc1cc(OCc2ccccn2)ccc1/C=C/c1cc(/C=C/c2ccc3[nH]cnc3c2)[nH]n1` [Example 31, 3-[(1E)-2-(1H-benzimidazol-5-yl)ethenyl]-5-[(1E)-2-[2-methoxy-4-(2-pyridylmethoxy)phenyl]ethenyl]-1H-pyrazole] had a melting point of 135 to 142 °C. Besides, in data set [1], the IC50 turned out to be 1.57 µM. Also, the IC50 on Aβ 1-42 is 6.88 µM. The half-maximal inhibitory concentration (IC50) in data set [2] was 0.69 µM.

`COc1cc(OCc2ccccn2)ccc1/C=C/c1cc(/C=C/c2ccc3ccn(C)c3c2)[nH]n1` [Example 35, 3-[(1E)-2-[2-methoxy-4-(2-pyridylmethoxy)phenyl]ethenyl]-5-[(1E)-2-(1-methyl-1H-indol-6-yl)ethenyl]-1H-pyrazole]: the melting point lay in the range of 172 to 174 °C. Besides, the half-maximal inhibitory concentration (IC50) at Aβ 1-42 is 0.91 µM.

Consider `COc1cc(OCc2ccccn2)ccc1/C=C/c1cc(/C=C/c2cc3ccccc3[nH]2)[nH]n1` [Example 36, 3-[(1E)-2-(1H-indol-2-yl)ethenyl]-5-[(1E)-2-[2-methoxy-4-(2-pyridylmethoxy)phenyl]ethenyl]-1H-pyrazole], for which the melting point was in the range of 150.8 to 151.6 °C. In addition, the half-inhibitory concentration (IC50) on Aβ 1-42 was 2.9 µM.

`CCN(CC)c1ccc(/C=C/c2cc(/C=C/c3ccc4cc[nH]c4c3)[nH]n2)c(OCc2ccccc2)c1` [Example 37, 3-[(1E)-2-(2-benzyloxy-4-diethylaminophenyl)ethenyl]-5-[(1E)-2-(1H-indol-6-yl)ethenyl]-1H-pyrazole]: the melting point fell in the range of 78.1 to 80 °C. The half-inhibitory concentration (IC50) at Aβ 1-42 was determined as 0.4 µM.

Take `COc1ccc([N+](=O)[O-])c(/C=C/c2cc(/C=C/c3ccc4cc[nH]c4c3)[nH]n2)c1` [Example 58, 3-[(1E)-2-(1H-indol-6-yl)ethenyl]-5-[(1E)-2-(5-methoxy-2-nitrophenyl)ethenyl]-1H-pyrazole]: the melting point was in the range of 104 to 109 °C. Moreover, in data set [1], the IC50 turned out to be 3.84 µM. The IC50 at Aβ 1-42 amounted to 2.17 µM. Further, the half-maximal inhibitory concentration (IC50) in data set [2] is 1.11 µM.

In turn, `COc1cc(OCc2ccccc2)ccc1/C=C/c1cc(/C=C/c2ccc3cc[nH]c3c2)[nH]n1` [Example 63, 3-[(1E)-2-(4-benzyloxy-2-methoxyphenyl)ethenyl]-5-[(1E)-2-(1H-indol-6-yl)ethenyl]-1H-pyrazole] showed a melting point of 86 to 91 °C. Besides, in data set [1], the half-maximal inhibitory concentration (IC50) came out at 1.37 µM. In addition, the half-maximal inhibitory concentration (IC50) at Aβ 1-42 is over 10 µM. The IC50 in data set [2] came to 4.39 µM.

`CN1CCCN(c2ccc(/C=C/c3cc(/C=C/c4ccc5cc[nH]c5c4)[nH]n3)c(Br)c2)CC1` [Example 72, 3-[(1E)-2-[2-bromo-4-(4-methyl-1,4-diazepan-1-yl)phenyl]ethenyl]-5-[(1E)-2-(1H-indol-6-yl)ethenyl]-1H-pyrazole] had a melting point of 132 to 136 °C. Also, the half-maximal inhibitory concentration (IC50) in data set [1] turned out to be 1.46 µM. Further, the 50% inhibitory concentration (IC50) on Aβ 1-42 was 2.45 µM. Also, the IC50 in data set [2] amounted to 0.22 µM.

Take `COc1cc(OCc2ccccn2)ccc1/C=C/c1cc(/C=C/c2ccc3c(c2)OCO3)[nH]n1` [Example 77, 3-[(1E)-2-(1,3-benzodioxol-5-yl)ethenyl]-5-[(1E)-2-[2-methoxy-4-(2-pyridylmethoxy)phenyl]ethenyl]-1H-pyrazole]: the melting point lay within 218 to 220 °C. The half-inhibitory concentration (IC50) in data set [1] is 1.26 µM. Also, on Aβ 1-42, the IC50 was over 10 µM. Besides, the IC50 in data set [2] was 13.7 µM.

For the compound `COc1cc(OCc2nccs2)ccc1/C=C/c1cc(/C=C/c2ccc3cc[nH]c3c2)[nH]n1` [Example 82, 3-[(1E)-2-(1H-indol-6-yl)ethenyl]-5-[(1E)-2-[2-methoxy-4-(1,3-thiazol-2-ylmethoxy)phenyl]ethenyl]-1H-pyrazole], the melting point was in the range of 229 to 237 °C. In data set [1], the IC50 was 1.04 µM. Besides, on Aβ 1-42, the half-inhibitory concentration (IC50) was 4.43 µM. For the same compound, the IC50 in data set [2] amounted to 3.99 µM.

The compound `COc1cc(OCc2ccccn2)ccc1/C=C/c1cc(/C=C/c2ccc3c(c2)OCCO3)[nH]n1` [Example 83, 3-[(1E)-2-(1,4-benzodioxan-6-yl)ethenyl]-5-[(1E)-2-[2-methoxy-4-(2-pyridylmethoxy)phenyl]ethenyl]-1H-pyrazole] showed a melting point of 153 to 155 °C. Also, the IC50 in data set [1] was found to be 0.85 µM. In addition, the IC50 on Aβ 1-42 is over 10 µM. Moreover, the IC50 in data set [2] stood at 22.7 µM.

Compound `CCN(CC)c1ccc(/C=C/c2cc(/C=C/c3ccc4cc[nH]c4c3)[nH]n2)c(OCCN2CCOCC2)c1` [Example 98, 3-[(1E)-2-[4-diethylamino-2-(2-morpholinoethoxy)phenyl]ethenyl]-5-[(1E)-2-(1H-indol-6-yl)ethenyl]-1H-pyrazole] registered a melting point of 96 to 99 °C. Moreover, the IC50 in data set [1] was 1.29 µM. At Aβ 1-42, the IC50 amounted to 3.27 µM. Also, the IC50 in data set [2] turned out to be 1.25 µM.

Compound `CCN(CC)c1ccc(/C=C/c2cc(/C=C/c3ccc4cc[nH]c4c3)[nH]n2)c(OC)c1` [Example 104, 3-[(1E)-2-(4-diethylamino-2-methoxyphenyl)ethenyl]-5-[(1E)-2-(1H-indol-6-yl)ethenyl]-1H-pyrazole] had a melting point of 104 to 108 °C.

On to `CN(C)c1ccc(/C=C/c2cc(/C=C/c3ccc4cc[nH]c4c3)[nH]n2)cc1` [Example 105, 3-[(1E)-2-(4-dimethylaminophenyl)ethenyl]-5-[(1E)-2-(1H-indol-6-yl)ethenyl]-1H-pyrazole], for which the melting point was 224 to 227 °C.

`CCN(CC)c1ccc(/C=C/c2cc(/C=C/c3ccc4cc[nH]c4c3)[nH]n2)cc1` [Example 106, 3-[(1E)-2-(4-diethylaminophenyl)ethenyl]-5-[(1E)-2-(1H-indol-6-yl)ethenyl]-1H-pyrazole] showed a melting point of 201 to 204 °C.

`C(=C\c1cc(/C=C/c2ccc3cc[nH]c3c2)[nH]n1)/c1ccc(N2CCCCC2)cc1` [Example 107, 5-[(1E)-2-(1H-indol-6-yl)ethenyl]-3-[(1E)-2-[4-(1-piperidinyl)phenyl]ethenyl]-1H-pyrazole] came in with a melting point of 189 to 191 °C.

Regarding `COc1cc(OCc2ccccn2)ccc1/C=C/c1cc(/C=C/c2ccccc2)[nH]n1` [Example 109, 3-[(1E)-2-[2-methoxy-4-(2-pyridylmethoxy)phenyl]ethenyl]-5-[(1E)-2-phenylethenyl]-1H-pyrazole], the melting point fell in the range of 143 to 146 °C. Also, in data set [1] (compound at 1 μM), the “tau aggregation inhibitory activity at 1 μM” value was determined as 0%. Further, in data set [2] (compound at 1 μM), the inhibition at 1 µM turned out to be 12%.
